One assay has as its target human TLR9 (Homo sapiens (Human), UniProt Q9NR96). The assay can be described thus: TLR9 inhibition reporter assay (HEK-Blue SEAP).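 Note: SEAP driven by IFN-β minimal promoter carrying five NF-κB and AP-1 sites, 22 h at 37 °C, compounds 0.05 nM–50 µM, inhibition scaled between agonist-plus-DMSO and reference-inhibitor wells.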
The target in another assay is human TLR7 (Homo sapiens (Human), UniProt Q9NYK1). The assay can be described thus: TLR7 inhibition reporter assay (HEK-Blue SEAP). In kind it is cell-based. Conditions: HEK-Blue cells overexpressing human TLR7, gardiquimod 7.5 μM stimulation.
human TLR7, sequence (Q9NYK1 27-1049): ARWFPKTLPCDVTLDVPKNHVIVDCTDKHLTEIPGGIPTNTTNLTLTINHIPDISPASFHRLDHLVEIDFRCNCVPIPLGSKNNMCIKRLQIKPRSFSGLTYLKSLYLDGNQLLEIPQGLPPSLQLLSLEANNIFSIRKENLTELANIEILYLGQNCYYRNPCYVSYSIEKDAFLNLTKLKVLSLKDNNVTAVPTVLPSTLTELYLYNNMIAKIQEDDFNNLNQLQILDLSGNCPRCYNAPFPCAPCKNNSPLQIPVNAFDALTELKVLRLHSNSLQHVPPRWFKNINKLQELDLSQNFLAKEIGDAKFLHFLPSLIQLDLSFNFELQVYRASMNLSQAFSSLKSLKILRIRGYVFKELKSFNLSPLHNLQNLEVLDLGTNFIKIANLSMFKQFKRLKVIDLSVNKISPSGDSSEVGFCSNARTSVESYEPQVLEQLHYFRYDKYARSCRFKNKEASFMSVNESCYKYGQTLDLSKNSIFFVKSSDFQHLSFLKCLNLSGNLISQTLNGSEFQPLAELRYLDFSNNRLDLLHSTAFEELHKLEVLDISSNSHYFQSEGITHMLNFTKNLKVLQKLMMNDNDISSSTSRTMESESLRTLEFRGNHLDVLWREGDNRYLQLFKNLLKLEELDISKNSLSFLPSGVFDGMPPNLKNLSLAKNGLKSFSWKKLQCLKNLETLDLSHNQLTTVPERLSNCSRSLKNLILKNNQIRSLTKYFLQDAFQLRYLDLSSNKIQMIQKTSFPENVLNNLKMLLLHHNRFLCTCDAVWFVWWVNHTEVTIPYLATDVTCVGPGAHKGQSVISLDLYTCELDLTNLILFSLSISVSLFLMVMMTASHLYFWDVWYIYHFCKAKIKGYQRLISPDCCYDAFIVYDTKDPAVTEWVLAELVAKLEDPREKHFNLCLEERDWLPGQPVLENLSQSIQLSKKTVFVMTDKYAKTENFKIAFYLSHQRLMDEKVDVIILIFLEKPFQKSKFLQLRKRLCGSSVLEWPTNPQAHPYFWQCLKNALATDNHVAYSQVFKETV
In the next assay the target is human TLR8 (Homo sapiens (Human), UniProt Q9NR97). The assay can be described thus: TLR8 inhibition reporter assay (HEK-Blue SEAP).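 Note: SEAP driven by IFN-β minimal promoter with five NF-κB and AP-1 sites, compounds tested 0.05 nM to 50 µM, 22 h incubation, inhibition relative to agonist plus DMSO wells.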
human TLR8, sequence (Q9NR97 27-1041): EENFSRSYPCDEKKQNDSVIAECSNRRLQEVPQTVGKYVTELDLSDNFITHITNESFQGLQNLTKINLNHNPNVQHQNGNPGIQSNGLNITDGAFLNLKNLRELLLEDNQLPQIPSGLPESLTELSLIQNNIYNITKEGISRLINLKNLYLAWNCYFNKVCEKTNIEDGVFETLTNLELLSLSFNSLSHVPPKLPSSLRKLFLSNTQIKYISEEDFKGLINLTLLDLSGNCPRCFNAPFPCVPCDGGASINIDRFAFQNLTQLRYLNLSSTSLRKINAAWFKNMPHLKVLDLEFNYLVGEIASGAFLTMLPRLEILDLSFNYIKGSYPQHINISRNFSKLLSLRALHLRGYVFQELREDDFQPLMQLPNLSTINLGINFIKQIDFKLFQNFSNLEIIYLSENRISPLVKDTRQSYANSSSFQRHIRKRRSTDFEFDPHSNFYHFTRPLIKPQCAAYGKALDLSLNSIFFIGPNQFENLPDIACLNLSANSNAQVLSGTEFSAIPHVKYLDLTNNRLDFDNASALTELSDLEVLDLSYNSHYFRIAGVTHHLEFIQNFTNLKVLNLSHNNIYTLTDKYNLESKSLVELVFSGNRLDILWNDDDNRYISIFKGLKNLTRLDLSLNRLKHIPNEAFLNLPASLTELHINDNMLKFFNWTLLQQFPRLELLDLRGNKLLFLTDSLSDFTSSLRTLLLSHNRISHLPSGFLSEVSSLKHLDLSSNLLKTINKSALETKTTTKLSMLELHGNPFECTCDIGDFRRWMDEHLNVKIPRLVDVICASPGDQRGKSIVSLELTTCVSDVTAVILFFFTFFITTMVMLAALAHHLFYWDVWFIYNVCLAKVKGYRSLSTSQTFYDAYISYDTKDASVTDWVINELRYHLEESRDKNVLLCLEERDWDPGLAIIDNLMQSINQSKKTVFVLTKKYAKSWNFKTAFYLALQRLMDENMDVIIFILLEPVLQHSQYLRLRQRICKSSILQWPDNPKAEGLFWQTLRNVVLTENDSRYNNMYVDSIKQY
[1] abbreviates: read-out: TLR9 IC50; HEK-Blue cells overexpressing human TLR9, ODN2006 5 nM stimulation, SEAP reporter.
The mark [2] stands for this setting: read-out: TLR8 IC50; HEK-Blue cells overexpressing human TLR8, R848 15.9 μM stimulation, SEAP reporter.
Setting [3] is: read-out: TLR9 IC50; HEK-Blue cells overexpressing human TLR9; ODN2006 5 nM stimulation; SEAP reporter.
The mark [4] stands for this setting: read-out: TLR8 IC50; HEK-Blue cells overexpressing human TLR8; R848 15.9 μM stimulation; SEAP reporter.

Like-named read-outs stand apart in the source and are kept apart here.

Consider 40 compounds from patent US11912703B2, “6-azaindole compounds” (BRISTOL-MYERS SQUIBB COMPANY, priority 2017, dated 2024).

As a reminder, the IC50 is the point on the concentration scale where inhibition reaches its midpoint.

human TLR9, sequence (Q9NR96 26-1032): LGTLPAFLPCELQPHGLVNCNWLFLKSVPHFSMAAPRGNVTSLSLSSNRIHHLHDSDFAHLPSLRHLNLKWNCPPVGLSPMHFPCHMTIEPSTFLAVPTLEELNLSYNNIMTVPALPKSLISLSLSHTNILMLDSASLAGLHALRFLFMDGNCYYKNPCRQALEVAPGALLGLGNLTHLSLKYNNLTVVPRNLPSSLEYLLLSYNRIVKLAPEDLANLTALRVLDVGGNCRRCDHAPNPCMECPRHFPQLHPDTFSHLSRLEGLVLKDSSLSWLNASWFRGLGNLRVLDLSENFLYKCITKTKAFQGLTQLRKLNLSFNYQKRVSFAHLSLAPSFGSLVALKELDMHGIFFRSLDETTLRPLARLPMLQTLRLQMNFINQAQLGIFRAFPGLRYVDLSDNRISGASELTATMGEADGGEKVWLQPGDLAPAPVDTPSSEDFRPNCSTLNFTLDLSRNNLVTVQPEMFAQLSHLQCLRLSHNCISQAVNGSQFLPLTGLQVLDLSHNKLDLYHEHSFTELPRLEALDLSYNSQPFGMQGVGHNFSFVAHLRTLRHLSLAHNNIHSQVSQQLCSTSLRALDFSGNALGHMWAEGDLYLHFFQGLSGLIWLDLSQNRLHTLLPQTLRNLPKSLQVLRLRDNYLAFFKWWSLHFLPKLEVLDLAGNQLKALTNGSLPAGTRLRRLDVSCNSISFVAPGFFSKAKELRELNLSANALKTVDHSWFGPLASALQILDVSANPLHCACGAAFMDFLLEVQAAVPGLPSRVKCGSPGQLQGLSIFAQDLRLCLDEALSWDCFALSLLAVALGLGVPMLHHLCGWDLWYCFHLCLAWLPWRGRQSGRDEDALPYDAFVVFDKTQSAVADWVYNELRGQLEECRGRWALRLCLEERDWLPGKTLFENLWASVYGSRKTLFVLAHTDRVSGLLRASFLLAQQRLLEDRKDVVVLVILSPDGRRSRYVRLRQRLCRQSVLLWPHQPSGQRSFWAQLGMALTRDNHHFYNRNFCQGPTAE
Procedure for human TLR8: HEK-Blue™-cells (Invivogen) overexpressing human TLR7, TLR8 or TLR9 receptors were used for screening inhibitors of these receptors using an inducible SEAP (secreted embryonic alkaline phosphatase) reporter gene under the control of the IFN-β minimal promoter fused to five NF-κB and AP-1-binding sites. Briefly, cells are seeded into Greiner 384 well plates (15000 cells per well for TLR7, 20,000 for TLR8 and 25,000 for TLR9) and then treated with test compounds in DMSO to yield a final dose response concentration range of 0.05 nM-50 μM. After a 30 minute compound pre-treatment at room temperature, the cells are then stimulated with a TLR7 ligand (gardiquimod at a final concentration of 7.5 μM), TLR8 ligand (R848 at a final concentration of 15.9 μM) or TLR9 ligand (ODN2006 at a final concentration of 5 nM) to activate NF-κB and AP-1 which induce the production of SEAP. After a 22 hour incubation at 37° C., 500 CO2, SEAP levels are determined with the addition of HEK-Blue™ Detection reagent (Invivogen), a cell culture medium that allows for detection of SEAP, according to manufacturer's specifications.

Consider `Cc1cc(-c2[nH]c3cnc(C4CCC(NC5CCOCC5)CC4)c(F)c3c2C(C)C)cn2ncnc12` (stereo not drawn) [Example 110], for which the IC50 came out at 1160 nM at human TLR9 (setting [1]), 2 nM against human TLR7 and 1.3 nM on human TLR8 (setting [2]).
As to `COc1cc(-c2[nH]c3cnc(N4CCC(NC5CCOC5)CC4)c(F)c3c2C(C)C)cn2ncnc12` (stereo not drawn) [Example 190], the results for the IC50 on human TLR9 (setting [1]), on human TLR7 and at human TLR8 (setting [2]) were 874 nM, 0.77 nM and 0.22 nM, respectively.
For the compound `Cc1c(-c2[nH]c3cnc(C4CCC(NC5COC5)CC4)cc3c2C(C)C)cn2ncnc2c1C` (stereo not drawn) [Example 334], the IC50 at human TLR9 (setting [1]) worked out at 452 nM; at human TLR7, 0.35 nM; at human TLR8 (setting [2]), 1.4 nM.
On to `CNC(=O)CN1CCN(c2ncc3[nH]c(-c4cn5ncnc5c(C)c4C)c(C(C)C)c3c2F)[C@H](C)C1` [Example 465], for which the figures for the IC50 on human TLR9 (setting [3]), on human TLR7 and at human TLR8 (setting [4]) were 47900 nM, 8.5 nM and 3.1 nM, respectively.
`Cc1c(-c2[nH]c3cnc(N4CCN(CC5(C)COC5)CC4)c(F)c3c2C(C)C)cn2ncnc2c1C` [Example 410]: the values for the IC50 on human TLR9 (setting [1]), against human TLR7 and on human TLR8 (setting [2]) were above 50000 nM, 15 nM and 1.3 nM, respectively.
Turning to `COCCN1CCN(c2ncc3[nH]c(-c4cc(OC)c5ncnn5c4)c(C(C)C)c3c2F)CC1` [Example 361], the IC50 at human TLR9 (setting [1]) stood at 4850 nM; at human TLR7, 3.8 nM; on human TLR8 (setting [2]) it was 0.76 nM.
Taken in the same sequence, the figures for `Cc1c(-c2[nH]c3cnc(N4CCN(C(C)C)CC4)c(F)c3c2C(C)C)cn2ncnc2c1C` [Example 412] were 5740 nM, 6.7 nM and 0.29 nM.
Taken in the same sequence, the figures for `COc1cc(-c2[nH]c3cnc(N4CCC(NC5COC5)CC4)cc3c2C(C)C)cn2ncnc12` [Example 320] were 3010 nM, 4.4 nM and 2 nM.
For `Cc1c(-c2[nH]c3cnc(C4CCC(NC5CCOCC5)CC4)c(F)c3c2C(C)C)cn2ncnc2c1C` (stereo not drawn) [Example 134], the IC50 on human TLR9 (setting [1]) amounted to 1020 nM; against human TLR7 it was 0.98 nM; at human TLR8 (setting [2]), 0.27 nM.
`COc1cc(-c2[nH]c3cnc(N4CCC(N5CCC5)CC4)c(C)c3c2C(C)C)cn2ncnc12` [Example 87]: the IC50 at human TLR9 (setting [1]) amounted to 701 nM; on human TLR7, 0.33 nM; on human TLR8 (setting [2]) it was 1 nM.
Regarding `COc1cc(-c2[nH]c3cnc(C4CCC(NC(C)C)CC4)cc3c2C(C)C)cn2ncnc12` (stereo not drawn) [Example 315], the results for the IC50 at human TLR9 (setting [1]), against human TLR7 and on human TLR8 (setting [2]) were 166 nM, 7.6 nM and 47 nM, respectively.
Turning to `Cc1c(N2CCC(N(C)CCC#N)CC2)ncc2[nH]c(-c3cc(C)c4ncnn4c3)c(C(C)C)c12` [Example 280], the IC50 came to 2500 nM at human TLR9 (setting [1]), 1.3 nM on human TLR7 and 1.2 nM at human TLR8 (setting [2]).
Take `Cc1c(-c2[nH]c3cnc(N4CCN(CC(=O)N5CCOCC5)CC4)c(F)c3c2C(C)C)cn2ncnc2c1C` [Example 423]: the figures for the IC50 on human TLR9 (setting [1]), against human TLR7 and at human TLR8 (setting [2]) were 42500 nM, 5.4 nM and 0.59 nM, respectively.
Taken in the same sequence, the figures for `COc1cc(-c2[nH]c3cnc(N4CCN(C5CCCOC5)CC4)c(F)c3c2C(C)C)cn2ncnc12` (single isomer, unassigned) [Example 386] were above 50000 nM, 26 nM and 6.8 nM.
For `COc1cc(-c2[nH]c3cnc(N4CCN(CCS(C)(=O)=O)CC4)cc3c2C(C)C)cn2ncnc12` [Example 290], the IC50 at human TLR9 (setting [1]) was above 50000 nM; against human TLR7 it was 20 nM; at human TLR8 (setting [2]) it was 7.1 nM.
Taken in the same sequence, the figures for `Cc1c(-c2[nH]c3cnc(N4CCN(C(=O)CN5CCOCC5)CC4)c(F)c3c2C(C)C)cn2ncnc2c1C` [Example 421] were above 50000 nM, 16 nM and 12 nM.
As for `Cc1c(-c2[nH]c3cnc(N4CCN(CC(N)=O)CC4)c(C)c3c2C(C)C)cn2ncnc2c1C` [Example 414], the IC50 at human TLR9 (setting [1]) is above 50000 nM; at human TLR7 it was 41 nM; on human TLR8 (setting [2]), 6.2 nM.
Taken in the same sequence, the figures for `Cc1c(-c2[nH]c3cnc(N4CCN(C(=O)CN(C)C)CC4)c(C)c3c2C(C)C)cn2ncnc2c1C` [Example 416, 1-(4-(2-(7,8-dimethyl-[1,2,4]triazolo[1,5-a]pyridin-6-yl)-3-isopropyl-4-methyl-1H-pyrrolo[2,3-c]pyridin-5-yl)piperazin-1-yl)-2-(dimethylamino)ethan-1-one] were 1730 nM, 10 nM and 1.7 nM.
The matching figures for `COc1cc(-c2[nH]c3cnc(N4CCN(CC(=O)N5CCOCC5)C[C@H]4C)c(F)c3c2C(C)C)cn2ncnc12` [Example 448]: above 50000 nM, 28 nM and 22 nM.
With `COc1cc(-c2[nH]c3cnc(C4CCC(NCC(C)(C)OC)C4)cc3c2C(C)C)cn2ncnc12` (stereo not drawn) [Example 96], the IC50 on human TLR9 (setting [1]) came out at 294 nM; at human TLR7, 24 nM; on human TLR8 (setting [2]), 7.7 nM.
For `Cc1c(-c2[nH]c3cnc(N4CC5(CN(C)C5)C4)c(F)c3c2C(C)C)cn2ncnc2c1C` [Example 407], the IC50 amounted to 35400 nM on human TLR9 (setting [1]), 47 nM against human TLR7 and 828 nM on human TLR8 (setting [2]).
As to `CCCN1CCN(c2ncc3[nH]c(-c4cn5ncnc5c(C)c4C)c(C(C)C)c3c2F)[C@H](C)C1` [Example 455], the IC50 on human TLR9 (setting [3]) was 14600 nM; on human TLR7, 0.59 nM; on human TLR8 (setting [4]), 0.17 nM.
On to `COc1cc(-c2[nH]c3cnc(C4CCC(N5CCC5)CC4)cc3c2C(C)C)cn2ncnc12` (stereo not drawn) [Example 324], for which the results for the IC50 at human TLR9 (setting [1]), against human TLR7 and on human TLR8 (setting [2]) were 283 nM, 3 nM and 20 nM, respectively.
Turning to `COc1cc(-c2[nH]c3cnc(N4CCN(C5CCC5)C[C@H]4C)c(F)c3c2C(C)C)cn2ncnc12` [Example 441], the IC50 on human TLR9 (setting [1]) worked out at 7320 nM; against human TLR7, 4 nM; at human TLR8 (setting [2]), 11 nM.
As for `Cc1cc(-c2[nH]c3cnc(C4CCN(CC(=O)N(C)C)CC4)c(F)c3c2C(C)C)cc(C)n1` [Example 153], the IC50 on human TLR9 (setting [1]) turned out to be 3830 nM; against human TLR7 it was 8.8 nM; on human TLR8 (setting [2]) it was 5.2 nM.
As to `Cc1c(-c2[nH]c3cnc(N4CCC(NCC(C)(C)C)CC4)c(F)c3c2C(C)C)cn2ncnc2c1C` [Example 167], the IC50 at human TLR9 (setting [1]) turned out to be 4330 nM; at human TLR7, 2.6 nM; at human TLR8 (setting [2]), 0.49 nM.
In the case of `COc1cc(-c2[nH]c3cnc(C4CCC(NC5COC5)CC4)c(F)c3c2C(C)C)cn2ncnc12` (stereo not drawn) [Example 223], the IC50 at human TLR9 (setting [3]) worked out at 1110 nM; against human TLR7, 2.7 nM; on human TLR8 (setting [4]), 2.4 nM.
With `COc1cc(-c2[nH]c3cnc(N4CCN(C(=O)CN5CCOCC5)C[C@H]4C)c(F)c3c2C(C)C)cn2ncnc12` [Example 438], the IC50 at human TLR9 (setting [1]) was above 50000 nM; against human TLR7 it was 25 nM; on human TLR8 (setting [2]), 13 nM.
As for `COc1cc(-c2[nH]c3cnc(N4CCC(NC5COC5)CC4)c(F)c3c2C(C)C)cn2ncnc12` [Example 42, 1-(4-fluoro-3-isopropyl-2-(8-methoxy-[1,2,4]triazolo[1,5-a]pyridin-6-yl)-1H-pyrrolo[2,3-c]pyridin-5-yl)-N-(oxetan-3-yl)piperidin-4-amine], the figures for the IC50 on human TLR9 (setting [1]), against human TLR7 and on human TLR8 (setting [2]) were 9180 nM, 1.6 nM and 0.59 nM, respectively.
As to `Cc1cc(-c2[nH]c3cnc(C4CCC(NC5CCOCC5)CC4)c(F)c3c2C(C)C)cn2ncnc12` (stereo not drawn) [Example 82], the half-maximal inhibitory concentration (IC50) was 1460 nM at human TLR9 (setting [1]), 0.18 nM against human TLR7 and 0.36 nM on human TLR8 (setting [2]).
Regarding `COc1cc(-c2[nH]c3cnc(N4CCN(CCS(C)(=O)=O)C[C@H]4C)c(F)c3c2C(C)C)cn2ncnc12` [Example 450], the values for the IC50 on human TLR9 (setting [3]), on human TLR7 and on human TLR8 (setting [4]) were above 50000 nM, 12 nM and 39 nM, respectively.
As to `Cc1c(-c2[nH]c3cnc(C4CCC(NC5COC5)CC4)c(F)c3c2C(C)C)cn2ncnc2c1C` (stereo not drawn) [Example 174], the values for the IC50 at human TLR9 (setting [1]), against human TLR7 and at human TLR8 (setting [2]) were 7720 nM, 0.78 nM and 0.67 nM, respectively.
Taken in the same sequence, the figures for `Cc1cc(-c2[nH]c3cnc(C4CCC(N5CC6(COC6)C5)CC4)c(F)c3c2C(C)C)cn2ncnc12` (stereo not drawn) [Example 133] were 1360 nM, 0.52 nM and 1.2 nM.
Consider `Cc1c(-c2[nH]c3cnc(N4CC5(CN(CC(F)(F)F)C5)C4)c(F)c3c2C(C)C)cn2ncnc2c1C` [Example 434], for which the IC50 at human TLR9 (setting [1]) is above 50000 nM; on human TLR7, 90 nM; on human TLR8 (setting [2]) it was 48 nM.
Take `CCN(C)C1CCC(c2cc3c(C(C)C)c(-c4cc(OC)c5ncnn5c4)[nH]c3cn2)C1` (stereo not drawn) [Example 177]: the results for the IC50 at human TLR9 (setting [1]), at human TLR7 and at human TLR8 (setting [2]) were 549 nM, 8.7 nM and 4 nM, respectively.
In the case of `COc1cc(-c2[nH]c3cnc(C4CCN(C(=O)CN(C)C)CC4)c(C)c3c2C(C)C)cn2ncnc12` [Example 32], the figures for the IC50 on human TLR9 (setting [1]), against human TLR7 and on human TLR8 (setting [2]) were 279 nM, 40 nM and 124 nM, respectively.
`COc1cc(-c2[nH]c3cnc(C4CCN(C5COC5)CC4)c(C)c3c2C(C)C)cn2ncnc12` [Example 16]: the results for the IC50 on human TLR9 (setting [1]), against human TLR7 and on human TLR8 (setting [2]) were 1290 nM, 4.7 nM and 26 nM, respectively.
On to `Cc1cc(-c2[nH]c3cnc(N4CCC(N(C)CC(F)F)CC4)c(F)c3c2C(C)C)cn2ncnc12` [Example 257], for which the IC50 at human TLR9 (setting [1]) came to 36000 nM; at human TLR7, 5.3 nM; at human TLR8 (setting [2]), 6.4 nM.
`Cc1c(-c2[nH]c3cnc(C4CCC(NC5COC5)CC4)c(C)c3c2C(C)C)cn2ncnc2c1C` (stereo not drawn) [Example 91]: the values for the IC50 on human TLR9 (setting [1]), on human TLR7 and on human TLR8 (setting [2]) were 676 nM, 40 nM and 27 nM, respectively.
Regarding `Cc1cc(-c2[nH]c3cnc(C4CCNCC4)c(F)c3c2C(C)C)cn2ncnc12` [Example 184], the IC50 at human TLR9 (setting [1]) amounted to 1870 nM; against human TLR7, 1.9 nM; on human TLR8 (setting [2]) it was 7.9 nM.
